From patent US9980949B2, “SNS-595 and methods of using the same” (Sunesis Pharmaceuticals, Inc., priority 2004, dated 2018)

Assays:
HCT116 cells = assay: Combination studies with SNS-595, MTT assay, median-effect Combination Index; format: cell-based; details: combination with SNS-595 at constant ratio, 72 hours, <0.90 synergistic, 0.90-1.10 additive, >1.10 antagonistic
Procedure: The final DMSO concentration was 1% in the assay plate. The treated cells were incubated for 72 hours at 37° C., 5% CO2 before adding 20 μl/well 3-[4,5-dimethylthiazol-2-yl]-2,5-diphenyltetrazolium bromide (MTT) for 1 hour followed by 100 μl/well N,N-dimethyl formamide/SDS lysis buffer for at least 16 hours. The plates were read for absorbance at a wavelength of 595 nm. The data was worked up using the median-effect method that quantifies the interaction using a Combination Index (calculated using the software for dose effect analysis, Calcusyn V2(Biosoft). A combination is said to be additive if it yields a Combination Index of 0.90-1.10. A combination is said to be synergistic if it yields a Combination Index less than 0.90 and a combination is said to be antagonistic if it yields a Combination Index of more than 1.10. All Combination Index calculations were at a Fa value of 0.5, the point where 50% of the cells were dead. See Table 2.

topoisomerase II = assay: Catalytic inhibition of topoisomerase II (decatenation and relaxation of supercoiled DNA); format: biochemical; details: inhibits decatenation and relaxation of supercoiled DNA, no formation of cleavable complexes
Excerpt: (§1) SNS-595 is a cell cycle inhibitor and arrests cells at the G2 interface. Initially, the activity of SNS-595 was believed due to topoisomerase II inhibition.

various cells = assay: Cellular potency (EC50) in various cells; format: cell-based
Excerpt: as §1

[1] = system: 2-deoxyglucose treated cells; assay: Activity in cells with topoisomerase II levels modulated by 2-deoxyglucose; format: cell-based; details: topoisomerase II levels modulated using 2-deoxyglucose
Excerpt: as §1

[2] = system: cells where G2 arrest is abrogated; assay: Cytotoxicity in cells where G2 arrest is abrogated by caffeine; format: cell-based; details: caffeine inhibits both ATM and ATR
Excerpt: As shown by FIG. 1, ATM, ATR, and DNA-PK are three central DNA sensors/effectors that depending on the level of DNA damage that is detected within an individual cell, direct the cell into one of several outcomes including DNA repair, G2 arrest or apoptosis.

DNA-PK pathway [3] = assay: Dose-dependent responses of DNA-PK pathway members in HCT 116 cells (FIG. 2); format: cell-based; details: H2AX, c-Abl, p53, p73, p21, caspase-9, caspase-3
Excerpt: (§2) This damage impedes the ability of the cell to synthesize DNA and lengthens the time the cell spends in the S phase. […] When the DNA damage is sufficiently severe such that the double-strand breaks cannot be repaired through non-homologous end joining (NHEJ), the cell rapidly enters apoptosis. Some cells are able to reach the G2 phase but are subsequently arrested (mediated by cdc2/cyclin B) because the cells are too damaged to enter into the M phase and also eventually becomes apoptotic.

[4] = system: stable variant of HCT-116 cells; assay: Sensitivity of a stable SNS-595-resistant variant of HCT-116 cells; format: cell-based; details: stable variant with induced resistance
Excerpt: Consistent with this mechanism, cells with induced resistance to SNS-595 also have alterations in the DNA-PK pathway. […] Conversely, decreased levels of DNA-PK or its activity (e.g. in the presence of an inhibitor) is associated with an increased sensitivity to SNS-595.

[5] = Pharmacokinetics of SNS-595 in cancer patients; format: in vivo, human; details: for C0: human, intravenous
Procedure: SNS-595 was administered to enrolled patients for up to six cycles. A cycle is defined as a three-week period, with SNS-595 administered on the first day of each cycle (day 0), followed by at least 21 days of observation. SNS-595 was administered to cohorts of at least 3 patients and dose escalation occurred by sequential cohort.

DNA-PK pathway [6] = assay: Pharmacodynamic study: DNA-PK pathway members in HCT116 xenograft tumors (Western blots); format: in vivo, Nu/nu mice; details: IV bolus 20 or 40 mg/kg, 1-24 hours post dose, FIG. 3
Procedure: Nu/nu mice (ca. 25 grams) were injected with HCT116 cells (which were obtained from the ATCC) in the hind flank at 5 million cells with 50% matrigel (Becton-Dickinson). Tumors were allowed to grow to 400 mm^3. Xenograft bearing animals were then given either an IV bolus injection of SNS-595 (20 or 40 mg/kg) in the tail vein or a saline vehicle. At prescribed time points (1, 2, 4, 8, 16, and 24 hours post dose), animals were anesthetized with CO2, blood was taken via terminal cardiac puncture, and animals were sacrificed. Tumors were excised, pulverized using liquid nitrogen-cooled mortar and pestle, and flash-frozen in liquid nitrogen. Tumor lysates were made from pulverized samples by addition of lysis buffer. The protein concentrations of the DNA-PK pathway members were determined by Western blots. Approximately 25 micrograms of protein was loaded per lane on an SDS-PAGE gel. Proteins were separated by gel electrophoresis, blotted onto nitrocellulose membranes, and detected using the following antibodies: H2AX, phosphorylated at […] (Cell Signaling, catalog no. 2577L); p53, phosphorylated at S15 (Cell Signaling, catalog no. 9284S); p53, phosphorylated at S37 (Cell Signaling, catalog no. 9289S); p21 (Cell Signaling, catalog no. 2946); cdc2, phosphorylated at Y15 (Calbiochem, catalog no. 219437); cyclin B (Santa Cruz, catalog no. sc-594 (H-20)); p73, phosphorylated at […] […]

[7] = system: HCT-116 colon cancer cells; assay: Inhibition of cell growth (MTT) by SNS-595 in absence and presence of wortmannin; format: cell-based; details: HCT-116 cells, 100 nM wortmannin for 8-16 hours, 72 hours
Procedure: (§3) HCT-116 colon cancer cells were plated at a density of approximately […] with 100 μl/well of RPMI-1640 media (supplemented with 10% fetal bovine serum, 1% antibiotic/antimycotic, and 1.5% sodium bicarbonate) in a 96-well clear tissue-culture treated plate for 24 hours at 37° C., 5% CO2. Some cells were treated with 100 nM wortmannin for 8-16 hours. SNS-595 was then added as a serial dilution, and cells were incubated for 72 hours at 37° C., 5% CO2. MTT (20 μl/well of a 5 mg/ml stock solution) was added for 1 hour, followed by N,N-dimethyl formamide/SDS lysis buffer for at least 16 hours. Absorbance was monitored at 595 nm and data were fit by nonlinear regression to determine the inhibition of cell growth (IC50) by SNS-595 in the absence and presence of wortmannin. […] Similar results were seen when DNA-PK null cell line (approximately a 10 fold sensitization) was used instead of HCT-116 cells.

DNA-PK null cell line = assay: Inhibition of cell growth (MTT) by SNS-595 in DNA-PK null cell line; format: cell-based; details: DNA-PK null cell line instead of HCT-116 cells
Procedure: as §3

[8] = Solubility in acidic compositions; format: physicochemical; details: acidic compositions (<pH 4)
Procedure: An illustrative example of a suitable composition comprises: 10 mg SNS-595 per mL of aqueous solution of 4.5% sorbitol that is adjusted to pH 2.5 with methanesulfonic acid. One protocol for making such a solution includes the following for making a 100 mg/10 mL presentation: 100 mg of SNS-595 and 450 mg D-sorbitol are added to distilled water; the volume is brought up to a volume of 10 mL; and the pH of the resulting solution is adjusted to 2.5 with methanesulfonic acid. The resulting composition is also suitable for lyophilization. The lyophilized form is then reconstituted with sterile water to the appropriate concentration prior to use.

non-proliferating cells = format: cell-based
Excerpt: as §2, with “Treatment with SNS-595 results in an increase in the number of double-strand DNA breaks that form during the S phase. This” for “This”

## Cn1cnc2c(NCc3ccccc3)nc(NCCO)nc21 [Olomucine]
HCT116 cells
  Combination Index @ Fa = 0.5: 1.00

## N.N.[Cl][Pt][Cl] [Cisplatin]
HCT116 cells
  Combination Index @ Fa = 0.5: 0.54

## CC(=O)O[C@@]12CO[C@@H]1C[C@H](O)[C@@]1(C)C(=O)[C@H](O)C3=C(C)[C@@H](OC(=O)[C@H](O)[C@@H](NC(=O)OC(C)(C)C)c4ccccc4)C[C@@](O)([C@@H](OC(=O)c4ccccc4)[C@H]21)C3(C)C [Docetaxel]
HCT116 cells
  Combination Index @ Fa = 0.5: 2.00

## N.N.O=C([O-])C1(C(=O)[O-])CCC1.[Pt+2] [Carboplatin]
HCT116 cells
  Combination Index @ Fa = 0.5: 0.54

## COC1=C2C[C@@H](C)C[C@H](OC)[C@H](O)[C@@H](C)/C=C(\C)[C@H](OC(N)=O)[C@@H](OC)/C=C\C=C(/C)C(=O)NC(=CC1=O)C2=O [Geldanamycin]
HCT116 cells
  Combination Index @ Fa = 0.5: 0.47

## COC[C@H]1OC(=O)c2coc3c2[C@@]1(C)C1=C(C3=O)[C@@H]2CCC(=O)[C@@]2(C)C[C@H]1OC(C)=O [Wortmannin]
HCT116 cells
  Combination Index @ Fa = 0.5: 0.42

## CN[C@H]1CN(c2ccc3c(=O)c(C(=O)O)cn(-c4nccs4)c3n2)C[C@@H]1OC [SNS-595, (+)-1,4-dihydro-7-[(3S,4S)-3-methoxy-4-(methylamino)-1-pyrrolidinyl]-4-oxo-1-(2-thiazoyl)-1,8-naphthyridine-3-carboxylic acid]
Topoisomerase II
  IC50: ~5 µM
Various cells
  difference in potency, cellular EC50 versus biochemical inhibition of topoisomerase II: at least a ten-fold difference in increased potency
[1]
  difference in activity between 2-deoxyglucose treated cells and untreated cells: essentially no difference in activity
[2]
  difference in EC50 values, caffeine-treated (G2 arrest abrogated) versus untreated cells: essentially no difference in EC50 values
DNA-PK pathway [3]
  activation of DNA-PK mediated repair and apoptotic cellular machinery: activates, in a dose dependent manner
[4]
  sensitivity of resistant HCT-116 variant relative to HCT-116 cells: approximately ten fold less sensitive
[5]; dose escalation by sequential cohort
  relation of dose to AUC∞: linear with AUC∞
[5]; 3 mg/m2, plasma, dose 3 mg/m^2
  C0: 153 ng/mL
[5]; 6 mg/m2, plasma, dose 6 mg/m^2
  C0: 377 ng/mL
[5]; 12 mg/m2, plasma, dose 12 mg/m^2
  C0: 2890 ng/mL
[5]; 24 mg/m2, plasma, dose 24 mg/m^2
  C0: 2920 ng/mL
[5]; 48 mg/m2, plasma, dose 48 mg/m^2
  C0: 1980 ng/mL
[5]; 60 mg/m2, plasma, dose 60 mg/m^2
  C0: 4800 ng/mL
[5]; plasma, dose 3 mg/m^2
  AUCINF_obs: 1139.55 ng·h/mL
  Cl_obs: 1.14 mL/min/kg
  Cmax: 138.80 ng/mL
  HL: 16.27 h
  MRTINF_obs: 21.95 h
  Vss_obs: 1.44 L/kg
  Vz_obs: 1.55 L/kg
[5]; plasma, dose 6 mg/m^2
  Cl_obs: 0.71 mL/min/kg
  Cmax: 347.00 ng/mL
  HL: 20.69 h
  Vss_obs: 1.24 L/kg
  Vz_obs: 1.28 L/kg
[5]; plasma, dose 12 mg/m^2
  AUCINF_obs: 6329.15 ng·h/mL
  Cl_obs: 0.76 mL/min/kg
  Cmax: 2246.67 ng/mL
  HL: 17.81 h
  Vss_obs: 1.07 L/kg
  Vz_obs: 1.17 L/kg
[5]; plasma, dose 24 mg/m^2
  AUCINF_obs: 12655.32 ng·h/mL
  AUClast: 11133.03 ng·h/mL
  Cl_obs: 0.83 mL/min/kg
  Cmax: 2703.33 ng/mL
  HL: 16.14 h
  Vss_obs: 1.06 L/kg
  Vz_obs: 1.15 L/kg
[5]; plasma, dose 48 mg/m^2
  AUCINF_obs: 27347.38 ng·h/mL
  Cl_obs: 0.99 mL/min/kg
  Cmax: 2868.00 ng/mL
  HL: 21.32 h
  Vss_obs: 1.48 L/kg
  Vz_obs: 1.57 L/kg
[5]; plasma, dose 60 mg/m^2
  Cl_obs: 0.83 mL/min/kg
  Cmax: 4537.50 ng/mL
  HL: 17.63 h
  Vss_obs: 1.08 L/kg
  Vz_obs: 1.20 L/kg
DNA-PK pathway [6]
  levels of DNA-PK pathway members in tumors upon treatment: activated in tumors
[7]
  IC50 lower in the presence of wortmannin than in its absence: 3-6 fold
DNA-PK null cell line
  sensitization to SNS-595: ~10 fold
[8]
  solubility: increased solubility
non-proliferating cells
  lethality to non-proliferating cells: non-lethal to non-proliferating cells

## CC[C@H](CO)Nc1nc(NCc2ccccc2)c2ncn(C(C)C)c2n1 [Roscovitine]
HCT116 cells
  Combination Index @ Fa = 0.5: 1.10
